Assay results: patent publication US20230355599A1, “BIOMARKERS FOR CBL, AND COMPOSITIONS AND METHODS FOR THEIR USE” (NURIX THERAPEUTICS, INC., priority 2022, published 2023)

What was measured:
phosphorylated HS1 [1] = test: Phosphorylated HS1 in circulating CD8+ T cells after oral dosing of cynomolgus monkeys (flow cytometry, ex vivo anti-CD3/CD28 stimulation)
Procedure: (§1) To assess these proximal biomarkers of Cbl-b inhibition on CD8^+ T cells, pharmacodynamic analysis was performed in conjunction with a pharmacokinetic study conducted at Charles River Laboratories. Circulating blood was obtained from cynomolgus monkeys treated with 0.3, 1, 3 or 10 mg/kg of Compound 23 after a single dose and after 3 doses. The response to Cbl-b inhibition on proximal biomarkers (pHS1, pPLCγ2, and pZAP70) was measured in CD8^+ T cells using flow cytometry. This technique is highly quantitative and can measure multiple phosphorylation markers in different cell populations within the same sample.
(§2) Compound 23 was formulated in vehicle (0.2% Tween 80 in DI water+1 eq HCL) and aliquoted into individual (not serially diluted) dosing solutions of 0.3, 1, 3 and 10 mg/mL by stirring for 5-10 min, vortexing, and sonicating again as necessary to produce an even suspension that was stirred constantly at 4° C. to achieve and maintain a homogenous suspension. To prepare vehicle, 0.2% Tween 80 in deionized (DI) water, water was measured into a beaker with continuous stirring. Tween 80 was added sequentially, and stirring continued until the solution dissolved; the solution was stored at 2-8° C.
(§3) For pharmacodynamic analysis, whole blood was obtained from cynomolgus monkeys and used for flow cytometry assays to evaluate phosphorylated biomarkers, pHS1, pPLCγ2, and pZAP70, in circulating CD8^+ T cells.
(§4) On the day of dosing, blood samples were collected via femoral venipuncture in accordance with test facility standard operating procedures. 1 mL/tube of whole blood was collected pre-dose (time 0) and at 0.5, 1, 2, 4, 6, and 24 hours post-dose and added into 2 types of TruCulture tubes (Myriad) for pharmacodynamic analysis. One tube contained media alone and is denoted as “Null”, and the second tube contained 2 μg/mL anti-CD3 and anti-CD28, which were prepared at Nurix prior to the study using cynomolgus specific anti-CD3 (BD Biosciences; SP34-2) and anti-CD28 (Bio X cell; CD28.2) and denoted as “CD3/CD28”. Tubes were shipped by overnight courier on cold pack the day of collection and analyzed for phosphorylated biomarkers of Cbl-b inhibition by flow cytometry.
(§5) Following PD collection, upon receipt of TruCulture tubes, each tube was inverted 5-6 times to ensure a mixed suspension of blood. 30 μg of goat anti-mouse IgG (H+L) antibody (Invitrogen) was added to cross-link the stimulation antibodies and induce synchronized cellular stimulation. Cells were stimulated for 60 minutes alongside non-stimulated controls for each time point.
(§6) All buffers (Phosflow Lyse/Fix Buffer 5×, Phosflow Perm Buffer I; BD Biosciences) were prepared according to the manufacturer's instructions. After 60 minutes of goat anti-mouse IgG (H+L) antibody stimulation, one volume of blood was mixed with 20 volumes of pre-warmed BD Phosflow Lyse/Fix Buffer (1×) by repeated pipetting (8-10 times), then incubated in a 37° C. water bath for 10 min. Cells were washed and centrifuged at 500×g for 5 min (2×) with PBS. Following centrifugation, cell pellets were resuspended in cold BD Phosflow Perm Buffer I (BD) and incubated at 4° C. for 20 min. […]

phosphorylated HS1 [2] = test: Phosphorylated HS1 in circulating CD8+ T cells of patients, Phase 1 trial (flow cytometry); assay type: in vivo, human
Procedure: Pharmacodynamic analysis of the proximal biomarker, phosphorylated HS1 is assessed in circulating CD8^+ T cells from patients that are being administered doses ranging from 5 to 50 mg of Compound 23 once daily and is being used to assess target engagement of Compound 23 as part of the dose/exposure-response profile. Whole blood is collected longitudinally and added into two types of TruCulture (Myriad) tubes. One tube contains media, and the second tube contains anti-CD3 and anti-CD28, which are subsequently crosslinked to induce cellular stimulation for pharmacodynamic analysis. Phosphorylated HS1 is assessed by flow cytometry pre and post dose on Cycle 1 Day 1 (C1D1) and Cycle 2 Day 1 (C2D1) to characterize single/multiple dose PD profiles.
% Maximal phosphorylated signal and % AUC are two commonly used parameters to assess the pharmacodynamic effects of drugs.
% Maximal phosphorylated signal refers to the maximum amount of a specific protein that becomes phosphorylated (i.e., modified by the addition of a phosphate group) in response to a drug or other stimulus. This parameter is often used to measure the activation of signaling pathways that are important for various cellular processes, including cell growth and differentiation, immune response, and metabolism.
% AUC, on the other hand, refers to the area under the curve (AUC) over time, expressed as a percentage of the maximum possible AUC. In summary, both % maximal phosphorylated signal and % AUC are useful parameters to assess the pharmacodynamic effects of drugs. % maximal phosphorylated signal is a measure of the activation of signaling pathways, while % AUC reflects the duration of the effect on PD signals. Both parameters can be used to evaluate the potency and duration of a drug's pharmacodynamic effects.

phosphorylated PLCγ2 = test: Phosphorylated PLCγ2 in circulating CD8+ T cells after oral dosing of cynomolgus monkeys (flow cytometry, ex vivo anti-CD3/CD28 stimulation)
Procedure: as §1, §2, §3, §4, §5
All buffers (Phosflow Lyse/Fix Buffer 5×, Phosflow Perm Buffer I; BD Biosciences) were prepared according to the manufacturer's instructions. […]

phosphorylated ZAP70 = test: Phosphorylated ZAP70 in circulating CD8+ T cells after oral dosing of cynomolgus monkeys (flow cytometry, ex vivo anti-CD3/CD28 stimulation)
Procedure: as §1, §2, §3, §4, §5, §6

[3] = multiple doses of 10 mg/kg, 3 days of daily oral dosing
[4] = multiple doses of 10 mg/kg, 4 hours post dose
[5] = single dose oral 10 mg/kg, after 24 hours
[6] = single dose oral 10 mg/kg, circulating CD8+ T cells, anti-CD3/CD28 stimulated
[7] = 5 mg once daily, n=1, cycle 1, day 1
[8] = 15 mg once daily, n=12, cycle 1, day 1
[9] = 25 mg once daily, n=7, cycle 1, day 1
[10] = 50 mg once daily, n=2, cycle 1, day 1

## C[C@H]1CCCN(Cc2cc3c(c(C(F)(F)F)c2)CN(c2cccc([C@]4(c5nncn5C)C[C@@H](C)C4)c2)C3=O)C1 [Compound 23]
Phosphorylated HS1 [1]; [3]
  phosphorylated HS1 in comparison to baseline: significant increases
Phosphorylated HS1 [1]; [4]
  time of peak increase of phosphorylated HS1: 76 h
Phosphorylated HS1 [1]; single dose oral 10 mg/kg
  time of maximal signal, phosphorylated HS1: 2 hours post dose
Phosphorylated HS1 [1]; [5]
  phosphorylated HS1 sustained after 24 hours: significant increase
Phosphorylated HS1 [1]; [6]
  phosphorylated HS1 in comparison to baseline: significant increases
Phosphorylated HS1 [2]; [7]
  % of phosphorylated HS1 expressing CD8+ T cells (maximal): 35%
  phosphorylated HS1 AUC: 578
Phosphorylated HS1 [2]; [8]
  % of phosphorylated HS1 expressing CD8+ T cells (maximal): 46%
  phosphorylated HS1 AUC: 787
Phosphorylated HS1 [2]; [9]
  % of phosphorylated HS1 expressing CD8+ T cells (maximal): 53%
  phosphorylated HS1 AUC: 876
Phosphorylated HS1 [2]; [10]
  % of phosphorylated HS1 expressing CD8+ T cells (maximal): 52%
  phosphorylated HS1 AUC: 1055
Phosphorylated HS1 [2]; Pearson correlation with PK parameters (AUC and CMAX), statistically significant slope p=0.02
  trend of AUC % pHS1 with PK: positive trend
Phosphorylated PLCγ2; [3]
  phosphorylated PLCγ2 in comparison to baseline: significant increases
Phosphorylated PLCγ2; [4]
  time of peak increase of phosphorylated PLCγ2: 76 h
Phosphorylated PLCγ2; single dose oral 10 mg/kg
  time of maximal signal, phosphorylated PLCγ2: 2 hours post dose
Phosphorylated PLCγ2; [6]
  phosphorylated PLCγ2 in comparison to baseline: significant increases
Phosphorylated ZAP70; [3]
  phosphorylated ZAP70 in comparison to baseline: significant increases
Phosphorylated ZAP70; [4]
  time of peak increase of phosphorylated ZAP70: 76 h
Phosphorylated ZAP70; single dose oral 10 mg/kg
  time of maximal signal, phosphorylated ZAP70: 2 hours post dose
Phosphorylated ZAP70; [5]
  phosphorylated ZAP70 sustained after 24 hours: significant increase
Phosphorylated ZAP70; [6]
  phosphorylated ZAP70 in comparison to baseline: significant increases
